Reference: ChEMBL document CHEMBL1201862, “PubChem BioAssay data set” (2004)
Active and inactive are the calls of the source.

Experiments:
[1] = test system: H9c2; experiment: cells; assay type: functional, cell-based; conditions: Rattus norvegicus, H9c2, Myocardium;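 note: confirmatory concentration-response retest of ultra-high-throughput screening hits for modulation of myocardial damage; cell death induced by hydrogen peroxide oxidative stress; compound pretreatment for 60 min then peroxide exposure for 2 h; potency is for protecting the cells against peroxide damage rather than for killing them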
[2] = luciferase reporter signal suppression in cells – H4 neuroglioma cells, luminescence, dose response (AID 1990); assay type: functional, cell-based
[3] = alpha-synuclein stem-loop luciferase translation blockers – H4 neuroglioma cells, luminescence, confirmation (AID 1988); assay type: functional, cell-based
[4] = Luminescence Cell-Based Dose Response HTS to Identify Inhibitors of 5'UTR Stem-Loop Driven Prion Protein mRNA Translation in H4 Neuroglioblastoma Cells. [Related pubchem assays: 1827 (Project Summary), 1813 (Primary HTS)]; assay type: functional
[5] = restored growth of temperature-sensitive Burl-1 yeast – whole organism, S. cerevisiae, Burl-1 ts mutant, luminescence, counter-screen for SUMOylation pathway inhibitor project, dose response (AID 463199); assay type: functional
[6] = target: T1, Tyrosine-protein phosphatase non-receptor type 7 (Homo sapiens, UniProt P35236); experiment: inhibition of hematopoietic tyrosine phosphatase HePTP – biochemical, set 2, SAR follow-up (AID 449736); assay type: functional
T1 sequence (P35236 whole entry): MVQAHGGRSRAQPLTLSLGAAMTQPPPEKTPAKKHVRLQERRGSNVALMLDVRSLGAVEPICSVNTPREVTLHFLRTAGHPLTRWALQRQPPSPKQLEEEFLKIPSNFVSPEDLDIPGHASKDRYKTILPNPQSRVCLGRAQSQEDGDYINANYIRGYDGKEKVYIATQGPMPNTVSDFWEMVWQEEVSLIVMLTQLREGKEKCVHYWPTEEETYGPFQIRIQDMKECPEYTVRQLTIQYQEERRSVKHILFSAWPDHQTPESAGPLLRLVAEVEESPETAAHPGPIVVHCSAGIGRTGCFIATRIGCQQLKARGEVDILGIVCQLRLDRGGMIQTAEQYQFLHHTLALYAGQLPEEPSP

[7] = target: T2, G-protein coupled receptor 55 (Homo sapiens, UniProt Q9Y2T6); experiment: selective activators of receptor GPR55 – imaging, U2OS cells, beta-arrestin-GFP redistribution, primary screen (AID 1961); assay type: functional
[8] = target: T3, Tyrosine-protein phosphatase non-receptor type 22 (Homo sapiens, UniProt Q9Y2R2); experiment: SAR LYP1 Fluorescent Assay using OMFP substrate for In Vitro dose response studies - Set 3. [Related pubchem assays (depositor defined):AID1779, AID1784, AID2140, AID2686]; assay type: functional
T3 sequence (Q9Y2R2 whole entry): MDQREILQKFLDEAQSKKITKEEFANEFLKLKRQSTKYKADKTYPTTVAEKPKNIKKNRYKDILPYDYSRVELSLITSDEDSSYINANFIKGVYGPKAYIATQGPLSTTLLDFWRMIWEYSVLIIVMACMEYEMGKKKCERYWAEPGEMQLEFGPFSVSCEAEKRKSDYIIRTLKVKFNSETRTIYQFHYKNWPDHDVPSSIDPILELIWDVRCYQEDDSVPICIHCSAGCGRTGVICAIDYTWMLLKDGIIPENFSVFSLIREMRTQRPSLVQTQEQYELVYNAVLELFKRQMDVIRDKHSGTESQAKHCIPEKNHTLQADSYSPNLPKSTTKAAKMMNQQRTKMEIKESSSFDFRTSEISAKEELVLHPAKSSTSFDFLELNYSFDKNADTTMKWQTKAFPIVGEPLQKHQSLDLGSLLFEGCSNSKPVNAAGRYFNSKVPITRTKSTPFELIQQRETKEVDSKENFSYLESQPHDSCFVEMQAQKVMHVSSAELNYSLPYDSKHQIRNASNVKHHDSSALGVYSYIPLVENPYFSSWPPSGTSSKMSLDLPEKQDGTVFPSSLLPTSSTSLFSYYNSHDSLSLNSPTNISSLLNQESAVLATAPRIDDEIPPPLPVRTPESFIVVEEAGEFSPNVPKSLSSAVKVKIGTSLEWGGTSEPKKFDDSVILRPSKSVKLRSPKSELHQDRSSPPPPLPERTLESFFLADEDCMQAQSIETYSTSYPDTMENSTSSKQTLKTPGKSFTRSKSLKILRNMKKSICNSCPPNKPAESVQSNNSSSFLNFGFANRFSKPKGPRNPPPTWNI

[9] = target: Tyrosine-protein phosphatase non-receptor type 12 (Homo sapiens, UniProt Q05209); experiment: SAR Selectivity Analysis of small molecule inhibitors of PEST using pCAP in a fluorescence assay. [Related pubchem assays (depositor defined):AID1779, AID1784, AID2135]; assay type: functional
[10] = target: T4, G-protein coupled receptor 35 (Homo sapiens, UniProt Q9HC97); experiment: SAR Analysis for the identification of Selective Antagonists of ERK1/2 Activity in GPR35-Overexpressing U2OS Cells. [Related pubchem assays: 2079, 2058 ]; assay type: functional, cell-based
[11] = target: T2, G-protein coupled receptor 55; experiment: blockers of GPR55 signalling, imaged – imaging, image-based, counter-screen for GPR35 antagonist project, SAR follow-up (AID 2397); assay type: functional
[12] = target: T3, Tyrosine-protein phosphatase non-receptor type 22; experiment: inhibition of lymphoid tyrosine phosphatase LYP – biochemical, pCAP fluorogenic substrate, fluorescence, set 3, SAR follow-up (AID 449727); assay type: functional
[13] = target: T4, G-protein coupled receptor 35; experiment: inhibition of zaprinast-stimulated GPR35 beta-arrestin translocation – imaging, U2OS, beta-arrestin-GFP, zaprinast agonist, primary screen (AID 2058); assay type: functional;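 note: antagonist potency meaning inhibition of agonist-induced arrestin redistribution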
[14] = target: T5, CAAX prenyl protease 2 (Saccharomyces cerevisiae S288c, UniProt Q03530); assay type: biochemical
T5 sequence (Q03530 whole entry): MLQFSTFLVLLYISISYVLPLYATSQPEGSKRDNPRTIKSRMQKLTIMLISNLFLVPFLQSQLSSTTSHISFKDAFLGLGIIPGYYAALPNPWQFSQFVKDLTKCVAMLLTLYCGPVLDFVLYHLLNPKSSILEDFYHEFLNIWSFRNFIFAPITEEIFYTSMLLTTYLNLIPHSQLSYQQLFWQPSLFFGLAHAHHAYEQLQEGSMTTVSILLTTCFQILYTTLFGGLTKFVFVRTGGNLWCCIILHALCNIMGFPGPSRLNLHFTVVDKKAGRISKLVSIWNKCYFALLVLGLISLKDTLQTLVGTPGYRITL

[15] = target: T6, Coagulation factor XII (Homo sapiens, UniProt P00748); experiment: activated coagulation factor XII inhibitor potency, concentration-effect curve, cell-free (AID 716); assay type: functional
T6 sequence (P00748 whole entry): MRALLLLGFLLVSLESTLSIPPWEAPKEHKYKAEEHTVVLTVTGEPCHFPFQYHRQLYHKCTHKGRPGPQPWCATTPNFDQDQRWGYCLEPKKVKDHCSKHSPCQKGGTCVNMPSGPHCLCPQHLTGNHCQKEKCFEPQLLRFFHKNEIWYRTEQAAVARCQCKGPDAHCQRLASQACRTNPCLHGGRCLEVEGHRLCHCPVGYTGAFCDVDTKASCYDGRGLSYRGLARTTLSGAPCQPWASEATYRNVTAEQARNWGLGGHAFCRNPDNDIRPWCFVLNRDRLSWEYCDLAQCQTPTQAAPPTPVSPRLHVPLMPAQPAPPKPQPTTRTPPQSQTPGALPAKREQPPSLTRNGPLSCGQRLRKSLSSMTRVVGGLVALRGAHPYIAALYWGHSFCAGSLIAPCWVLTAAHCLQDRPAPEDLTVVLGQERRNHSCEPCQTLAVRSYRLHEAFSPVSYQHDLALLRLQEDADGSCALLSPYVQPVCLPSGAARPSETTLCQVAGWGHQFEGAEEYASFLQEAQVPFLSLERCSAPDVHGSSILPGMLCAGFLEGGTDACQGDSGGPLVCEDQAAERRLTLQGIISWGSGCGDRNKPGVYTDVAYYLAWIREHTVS

[16] = target: T7, CAAX prenyl protease 2 (Homo sapiens, UniProt Q9Y256); experiment: inhibition of Ras-converting CAAX protease Rce1 – biochemical, yeast membranes, quenched-peptide fluorescence, cherry-pick, dose response (AID 588849)
T7 sequence (Q9Y256 whole entry): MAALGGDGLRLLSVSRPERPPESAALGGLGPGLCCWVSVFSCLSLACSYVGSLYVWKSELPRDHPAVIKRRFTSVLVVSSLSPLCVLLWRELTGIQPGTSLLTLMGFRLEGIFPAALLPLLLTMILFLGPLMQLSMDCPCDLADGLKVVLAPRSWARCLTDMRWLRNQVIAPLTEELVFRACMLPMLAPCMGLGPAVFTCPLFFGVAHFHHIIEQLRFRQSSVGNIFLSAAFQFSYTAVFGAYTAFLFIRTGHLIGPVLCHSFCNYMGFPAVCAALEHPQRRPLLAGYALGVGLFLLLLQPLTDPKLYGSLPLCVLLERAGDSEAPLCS

[17] = target: CAAX prenyl protease 1 (Saccharomyces cerevisiae S288c, UniProt P47154); experiment: yeast CAAX protease Ste24 inhibition – biochemical, S. cerevisiae, plate reader, cherry-pick, dose response (AID 488815)
[18] = target: T8, Protein RecA (Mycobacterium tuberculosis, UniProt P9WHJ3); experiment: Fluorescence Cell-Free Homogeneous Dose Retest to Identify Inhibitors of RecA-Intein Splicing Activity. [Related pubchem assays (depositor defined):AID2097, AID2223, AID489010, AID492950]; assay type: functional
T8 sequence (P9WHJ3 whole entry): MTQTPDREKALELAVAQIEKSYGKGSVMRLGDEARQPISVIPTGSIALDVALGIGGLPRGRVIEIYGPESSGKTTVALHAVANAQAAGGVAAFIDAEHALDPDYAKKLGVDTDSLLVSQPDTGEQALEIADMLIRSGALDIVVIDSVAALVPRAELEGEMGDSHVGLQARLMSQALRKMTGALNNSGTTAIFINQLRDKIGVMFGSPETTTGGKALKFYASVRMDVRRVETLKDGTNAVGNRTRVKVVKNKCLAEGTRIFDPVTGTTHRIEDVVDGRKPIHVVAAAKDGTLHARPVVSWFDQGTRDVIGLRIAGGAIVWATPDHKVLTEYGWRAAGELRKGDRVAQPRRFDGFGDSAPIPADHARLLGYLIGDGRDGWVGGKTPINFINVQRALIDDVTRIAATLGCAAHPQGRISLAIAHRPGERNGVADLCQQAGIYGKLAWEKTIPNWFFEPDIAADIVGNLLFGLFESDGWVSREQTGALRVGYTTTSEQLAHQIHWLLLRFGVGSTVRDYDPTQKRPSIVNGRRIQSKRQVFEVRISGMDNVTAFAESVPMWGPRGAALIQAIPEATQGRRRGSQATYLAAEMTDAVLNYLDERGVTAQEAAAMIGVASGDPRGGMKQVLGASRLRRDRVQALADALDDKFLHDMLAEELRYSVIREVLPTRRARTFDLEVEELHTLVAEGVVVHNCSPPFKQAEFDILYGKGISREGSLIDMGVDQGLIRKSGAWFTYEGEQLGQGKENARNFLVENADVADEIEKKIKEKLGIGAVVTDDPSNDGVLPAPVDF

[19] = target: Trypsin (Sus scrofa, UniProt P00761); experiment: trypsin protease activity blockade – biochemical, quenched peptide fluorescence, cherry-pick, selectivity assay for Rce1 protease inhibitor project, dose response (AID 488789)
[20] = target: T9, Replicative DNA helicase DnaB (Mycobacterium tuberculosis, UniProt P9WMR3); experiment: DnaB intein splicing inhibitors, dose response, biochemical, cell-free fluorescence (AID 449749); assay type: functional
T9 sequence (P9WMR3 whole entry): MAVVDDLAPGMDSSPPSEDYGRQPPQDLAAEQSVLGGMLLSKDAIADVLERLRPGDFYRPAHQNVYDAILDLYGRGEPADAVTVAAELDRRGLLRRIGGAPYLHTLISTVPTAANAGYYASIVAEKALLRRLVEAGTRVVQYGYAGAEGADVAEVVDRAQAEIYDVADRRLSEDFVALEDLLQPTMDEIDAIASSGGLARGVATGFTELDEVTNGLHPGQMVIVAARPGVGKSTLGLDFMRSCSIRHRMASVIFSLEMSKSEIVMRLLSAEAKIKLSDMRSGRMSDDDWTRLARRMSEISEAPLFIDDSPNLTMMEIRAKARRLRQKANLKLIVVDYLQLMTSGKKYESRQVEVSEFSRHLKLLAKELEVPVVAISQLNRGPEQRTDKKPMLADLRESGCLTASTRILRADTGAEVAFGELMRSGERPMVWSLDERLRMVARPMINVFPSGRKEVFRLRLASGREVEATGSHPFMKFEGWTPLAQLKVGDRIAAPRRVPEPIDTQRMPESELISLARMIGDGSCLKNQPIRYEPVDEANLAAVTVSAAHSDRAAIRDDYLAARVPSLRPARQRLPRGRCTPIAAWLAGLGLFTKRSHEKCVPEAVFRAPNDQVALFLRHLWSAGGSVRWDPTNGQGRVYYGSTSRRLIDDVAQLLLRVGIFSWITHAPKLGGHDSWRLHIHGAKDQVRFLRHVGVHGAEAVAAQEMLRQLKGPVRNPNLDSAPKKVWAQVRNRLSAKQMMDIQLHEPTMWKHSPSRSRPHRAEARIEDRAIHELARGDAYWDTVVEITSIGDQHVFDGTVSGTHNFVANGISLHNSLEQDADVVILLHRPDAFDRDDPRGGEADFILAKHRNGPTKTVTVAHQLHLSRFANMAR

[21] = target: SUMO E1/E2 (Homo sapiens, UniProt P63279+Q9UBE0+Q9UBT2); experiment: SAR analysis of SUMOylation using HTRF in an in-Vitro dose response assay. [Related pubchem assays (depositor defined):AID2006, AID2011, AID2018, AID2069, AID2658]; assay type: functional
Chain of SUMO E1/E2 (Q9UBE0 whole entry): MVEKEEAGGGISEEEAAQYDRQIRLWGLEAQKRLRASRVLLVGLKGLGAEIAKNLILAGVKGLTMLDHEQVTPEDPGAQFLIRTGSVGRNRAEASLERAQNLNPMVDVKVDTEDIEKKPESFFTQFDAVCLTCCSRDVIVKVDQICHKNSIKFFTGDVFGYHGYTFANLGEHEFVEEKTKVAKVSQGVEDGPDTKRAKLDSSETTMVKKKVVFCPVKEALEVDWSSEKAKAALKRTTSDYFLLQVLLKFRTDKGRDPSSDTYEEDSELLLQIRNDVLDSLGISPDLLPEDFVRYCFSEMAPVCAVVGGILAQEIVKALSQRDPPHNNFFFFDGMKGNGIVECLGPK
Chain of SUMO E1/E2 (Q9UBT2 whole entry): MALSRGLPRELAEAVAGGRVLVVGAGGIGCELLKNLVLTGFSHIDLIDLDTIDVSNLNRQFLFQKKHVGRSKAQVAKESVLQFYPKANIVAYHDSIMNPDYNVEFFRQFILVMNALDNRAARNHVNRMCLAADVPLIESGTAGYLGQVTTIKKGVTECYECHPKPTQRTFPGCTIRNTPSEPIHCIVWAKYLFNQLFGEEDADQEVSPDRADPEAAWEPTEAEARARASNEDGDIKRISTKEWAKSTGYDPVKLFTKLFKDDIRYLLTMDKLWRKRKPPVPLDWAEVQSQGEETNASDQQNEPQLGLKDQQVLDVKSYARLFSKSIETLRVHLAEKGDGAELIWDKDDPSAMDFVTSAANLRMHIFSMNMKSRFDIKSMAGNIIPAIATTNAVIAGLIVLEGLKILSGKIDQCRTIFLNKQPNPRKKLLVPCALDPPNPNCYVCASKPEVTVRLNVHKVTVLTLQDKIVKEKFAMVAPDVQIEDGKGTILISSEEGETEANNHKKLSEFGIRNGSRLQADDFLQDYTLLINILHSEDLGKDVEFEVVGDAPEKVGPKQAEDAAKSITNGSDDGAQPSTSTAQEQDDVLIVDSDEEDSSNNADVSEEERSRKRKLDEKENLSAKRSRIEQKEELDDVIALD
Chain of SUMO E1/E2 (P63279 whole entry): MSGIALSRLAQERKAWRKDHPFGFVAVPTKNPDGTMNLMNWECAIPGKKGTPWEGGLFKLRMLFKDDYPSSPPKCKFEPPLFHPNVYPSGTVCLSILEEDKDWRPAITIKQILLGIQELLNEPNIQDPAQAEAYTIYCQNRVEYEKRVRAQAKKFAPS

T4 sequence (Q9HC97 whole entry): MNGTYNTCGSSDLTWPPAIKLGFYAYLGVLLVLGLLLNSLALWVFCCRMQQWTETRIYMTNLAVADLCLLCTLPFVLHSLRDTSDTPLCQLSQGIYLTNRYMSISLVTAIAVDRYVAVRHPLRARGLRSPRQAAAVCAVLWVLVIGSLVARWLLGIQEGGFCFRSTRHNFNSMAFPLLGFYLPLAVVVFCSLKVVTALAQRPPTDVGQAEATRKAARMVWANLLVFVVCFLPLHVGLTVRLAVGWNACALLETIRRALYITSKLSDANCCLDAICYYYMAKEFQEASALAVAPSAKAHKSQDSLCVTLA
T2 sequence (Q9Y2T6 whole entry): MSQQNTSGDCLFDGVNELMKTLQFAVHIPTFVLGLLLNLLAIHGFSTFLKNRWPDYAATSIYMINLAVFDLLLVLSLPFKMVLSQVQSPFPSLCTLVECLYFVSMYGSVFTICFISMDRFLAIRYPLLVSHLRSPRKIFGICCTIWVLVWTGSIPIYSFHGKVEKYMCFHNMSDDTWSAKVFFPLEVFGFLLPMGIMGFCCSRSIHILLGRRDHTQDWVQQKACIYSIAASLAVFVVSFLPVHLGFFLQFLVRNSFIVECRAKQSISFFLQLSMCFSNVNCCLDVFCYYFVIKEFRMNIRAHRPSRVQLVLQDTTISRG
Chain of CAAX prenyl protease 1 (P47154 whole entry): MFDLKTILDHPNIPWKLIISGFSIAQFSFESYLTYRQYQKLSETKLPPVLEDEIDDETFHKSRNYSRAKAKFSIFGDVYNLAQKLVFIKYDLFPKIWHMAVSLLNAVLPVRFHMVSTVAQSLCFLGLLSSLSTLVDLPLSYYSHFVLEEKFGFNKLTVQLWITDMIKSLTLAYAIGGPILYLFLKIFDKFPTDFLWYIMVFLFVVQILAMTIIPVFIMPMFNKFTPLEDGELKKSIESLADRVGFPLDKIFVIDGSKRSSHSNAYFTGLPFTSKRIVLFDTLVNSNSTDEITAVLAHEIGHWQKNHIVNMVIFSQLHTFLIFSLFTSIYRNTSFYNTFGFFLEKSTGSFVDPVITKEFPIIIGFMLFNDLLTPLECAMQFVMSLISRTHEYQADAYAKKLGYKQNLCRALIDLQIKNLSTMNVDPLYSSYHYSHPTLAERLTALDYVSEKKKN
Chain of Trypsin (P00761 whole entry): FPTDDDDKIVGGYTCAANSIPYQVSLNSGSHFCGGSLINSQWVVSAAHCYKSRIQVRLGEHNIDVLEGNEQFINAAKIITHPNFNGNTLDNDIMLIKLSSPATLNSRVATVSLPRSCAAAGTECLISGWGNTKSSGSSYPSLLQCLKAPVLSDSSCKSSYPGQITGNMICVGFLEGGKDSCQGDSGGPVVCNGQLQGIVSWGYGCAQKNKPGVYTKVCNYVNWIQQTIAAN
Chain of Tyrosine-protein phosphatase non-receptor type 12 (Q05209 whole entry): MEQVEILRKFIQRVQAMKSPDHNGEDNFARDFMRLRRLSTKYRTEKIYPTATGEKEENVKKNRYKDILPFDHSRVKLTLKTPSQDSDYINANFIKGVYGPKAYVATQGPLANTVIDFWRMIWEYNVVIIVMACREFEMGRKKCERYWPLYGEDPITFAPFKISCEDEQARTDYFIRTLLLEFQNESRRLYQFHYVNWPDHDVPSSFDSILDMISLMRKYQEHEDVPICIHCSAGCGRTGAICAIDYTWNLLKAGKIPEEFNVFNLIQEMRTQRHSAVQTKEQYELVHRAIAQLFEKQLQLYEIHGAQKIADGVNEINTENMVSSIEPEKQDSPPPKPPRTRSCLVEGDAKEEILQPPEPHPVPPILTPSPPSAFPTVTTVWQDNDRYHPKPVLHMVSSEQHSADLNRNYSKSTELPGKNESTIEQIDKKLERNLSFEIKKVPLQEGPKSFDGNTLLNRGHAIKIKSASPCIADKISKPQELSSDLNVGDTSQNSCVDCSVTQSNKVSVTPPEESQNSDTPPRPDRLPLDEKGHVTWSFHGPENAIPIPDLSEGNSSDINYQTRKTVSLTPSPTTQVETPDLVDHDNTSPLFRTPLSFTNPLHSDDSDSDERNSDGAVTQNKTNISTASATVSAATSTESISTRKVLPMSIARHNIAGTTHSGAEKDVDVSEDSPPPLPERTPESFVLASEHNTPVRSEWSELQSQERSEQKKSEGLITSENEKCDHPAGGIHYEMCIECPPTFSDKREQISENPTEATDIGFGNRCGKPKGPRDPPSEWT

Structure (SMILES): CCOC(=O)c1ccccc1NC(=O)CSc1ccc(-c2ccccn2)nn1
- IC50 [1]: 5.14 µM (active)
- EC50 [2]: 11.7 µM (active)
- EC50 [3]: 10.8 µM (active)
- EC50 [4]: > 120 µM (not active)
- AC50 [5]: 62.6 µM (active)

Structure (SMILES): Cc1ccc(/C=C2\SC(=S)N(CCCC(=O)Nc3cccc(C(=O)O)c3)C2=O)cc1
- IC50 [6]: 2.79 µM (active)
- EC50 [7]: 1.45 µM (active)
- IC50 [8]: 30.2 µM (active)
- IC50 [9]: 15.9 µM (active)
- IC50 [10]: 1.39 µM (active)
- IC50 [11]: > 32 µM (inactive)
- IC50 [12]: 39 µM (active)
- IC50 [13]: < 500 nM (active)

Structure (SMILES): CC(C)C(=O)N1CCN(c2nc(-c3ccccc3)c3c(c2C#N)CCCC3)CC1
- AC50 [14]: 14.4 µM (active)
- IC50 [15]: > 50 µM (inactive)
- AC50 [16]: 7.27 µM (active)
- AC50 [17]: 6.09 µM (active)
- EC50 [18]: 38.4 µM (active)
- AC50 [19]: 1.74 µM (active)
- AC50 [20]: 7.76 µM (active)

Structure (SMILES): O=S(=O)(Nc1ccccc1F)c1ccc2c(c1)C1C=CCC1C(c1ccc(F)cc1)N2 (stereo unspecified)
- IC50 [21]: > 100 µM (inactive)
